For one data set, the target named is Adenosine receptor A2a (Homo sapiens, UniProt P29274). The data set can be described thus: Displacement of [3H]ZM241385 from human adenosine A2A receptor expressed in human HeLa cells after 1 hr by scintillation proximity assay. It counts as cell-based.
A short description of data set [1]: Metabolic stability in rat liver microsomes assessed as turnover at 5 uM after 30 mins in absence of NADPH. It is filed as ADME, Microsome. The conditions noted are these: read-out: Stability.
Data set [2] is described as follows: Apparent permeability across human Caco-2 cells at 12.5 uM. It counts as ADME, cell-based. The conditions noted are these: read-out: permeability.
In a further data set the target is T1, Adenosine receptor A1 (Homo sapiens, UniProt P30542).
T1 sequence (P30542 whole entry): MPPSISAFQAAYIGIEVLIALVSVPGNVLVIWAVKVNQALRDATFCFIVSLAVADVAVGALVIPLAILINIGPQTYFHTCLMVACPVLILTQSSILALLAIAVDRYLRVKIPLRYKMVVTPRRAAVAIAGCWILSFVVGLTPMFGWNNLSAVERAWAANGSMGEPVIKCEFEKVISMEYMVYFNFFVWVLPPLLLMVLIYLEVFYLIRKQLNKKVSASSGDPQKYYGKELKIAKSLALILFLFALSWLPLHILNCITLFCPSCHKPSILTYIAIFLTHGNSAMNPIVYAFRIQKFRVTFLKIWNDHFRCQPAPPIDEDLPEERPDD
The data set can be described thus: Displacement of [3H]DPCPX from human adenosine A1 receptor expressed in CHO cells after 90 mins by filtration binding assay. It counts as cell-based.

In data set [3] the target is T2, Adenosine receptor A3 (Homo sapiens) (UniProt P0DMS8).
T2 sequence (whole entry): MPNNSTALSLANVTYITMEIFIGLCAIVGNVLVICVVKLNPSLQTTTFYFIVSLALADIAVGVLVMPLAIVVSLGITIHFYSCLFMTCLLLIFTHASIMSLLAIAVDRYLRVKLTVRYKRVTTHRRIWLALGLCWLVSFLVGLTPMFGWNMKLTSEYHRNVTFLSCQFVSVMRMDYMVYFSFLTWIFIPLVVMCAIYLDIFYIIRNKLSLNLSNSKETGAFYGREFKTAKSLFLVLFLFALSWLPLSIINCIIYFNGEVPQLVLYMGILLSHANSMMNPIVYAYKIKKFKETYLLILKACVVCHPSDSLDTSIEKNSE
As to the kind of experiment: Inhibition of [3H]NECA binding to human adenosine A3 receptor expressed in human HeLa cells at 1 uM after 3 hrs by filtration binding assay. It is filed as cell-based.

In another data set the target is T3, Adenosine receptor A2b (Homo sapiens, UniProt P29275).
T3 sequence (P29275 whole entry): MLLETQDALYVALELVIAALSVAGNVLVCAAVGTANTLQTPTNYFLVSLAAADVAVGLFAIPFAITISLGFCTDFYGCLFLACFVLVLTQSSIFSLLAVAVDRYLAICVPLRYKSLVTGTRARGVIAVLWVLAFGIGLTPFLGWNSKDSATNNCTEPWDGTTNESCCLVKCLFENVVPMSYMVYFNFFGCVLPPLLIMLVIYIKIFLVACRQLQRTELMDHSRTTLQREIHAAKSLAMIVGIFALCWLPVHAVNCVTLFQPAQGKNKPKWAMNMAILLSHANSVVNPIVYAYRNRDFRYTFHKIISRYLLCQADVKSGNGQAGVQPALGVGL
The data set can be described thus: Displacement of [3H]DPCPX from human adenosine A2B receptor expressed in HEK293 cells after 60 mins by filtration binding assay. It counts as cell-based.

Data set [4] can be described thus: Volume of distribution at steady state in rat at 1 mg/kg, iv. It counts as ADME, organism-based. Further details: dose 1 mg/kg, route intravenous. The conditions noted are these: in vivo, read-out: Vdss.
Data set [5] in a line: Clearance in rat at 1 mg/kg, iv. It is filed as ADME, organism-based. The arrangement: dose 1 mg/kg, route intravenous. The conditions noted are these: in vivo.
Data set [6] can be described thus: Terminal half life in rat at 1 mg/kg, iv. It counts as ADME, organism-based. Further details: dose 1 mg/kg, route intravenous. The conditions noted are these: in vivo.
Data set [7] in a line: AUC (0 to infinity) in rat at 1 mg/kg, iv. It counts as ADME, organism-based. The arrangement: time infinity, dose 1 mg/kg, route intravenous. The conditions noted are these: plasma.
A short description of data set [8]: Cmax in rat at 1 mg/kg, iv. It is filed as ADME, organism-based. Further details: dose 1 mg/kg, route intravenous. The conditions noted are these: in vivo.
The next data set concerns the target T4, Adenosine receptor A3 (Homo sapiens, UniProt P0DMS8).
T4 sequence (P0DMS8 whole entry): T2 sequence (whole entry)
As to the kind of experiment: Displacement of [3H]NECA from human adenosine A3 receptor expressed in human HeLa cells after 3 hrs by filtration binding assay. It counts as cell-based.

The nature of data set [9]: Thermodynamic solubility at pH 7.4. It counts as physicochemical. The conditions noted are these: buffer.
Data set [10] in a line: Oral bioavailability in rat at 10 mg/kg. It counts as ADME, organism-based. The conditions noted are these: in vivo.

Data on 9 compounds can be found in ChEMBL document CHEMBL1154955, “Discovery of potent and selective bicyclic A(2B) adenosine receptor antagonists via bioisosteric amide replacement” (Bioorg Med Chem Lett, 2010).

Each structure is given as a SMILES string. pKi: −log10 of the molar value. Converted amounts (≈) assume the structure as drawn.

Chain of Adenosine receptor A2a (P29274 whole entry): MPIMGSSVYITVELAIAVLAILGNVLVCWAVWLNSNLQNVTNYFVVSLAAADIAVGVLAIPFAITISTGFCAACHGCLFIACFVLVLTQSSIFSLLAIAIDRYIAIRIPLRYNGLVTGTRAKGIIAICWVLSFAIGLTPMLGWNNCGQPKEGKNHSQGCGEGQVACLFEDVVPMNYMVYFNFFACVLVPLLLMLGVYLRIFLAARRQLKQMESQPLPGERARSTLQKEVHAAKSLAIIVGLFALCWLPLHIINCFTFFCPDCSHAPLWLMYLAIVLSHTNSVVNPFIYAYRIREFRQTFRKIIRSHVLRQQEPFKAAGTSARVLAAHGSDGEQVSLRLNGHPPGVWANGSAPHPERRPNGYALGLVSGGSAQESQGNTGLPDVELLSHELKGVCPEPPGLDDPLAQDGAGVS

As to `Cn1c(=O)[nH]c2nc(-c3ccco3)c(-c3ccncn3)cc21`, the figures for the pKi at Adenosine receptor A2a, on Adenosine receptor A1 and at Adenosine receptor A2b were 5.67, 5.61 and 7.96, respectively. Further, the metabolised at 0.5 h, 5 µM in data set [1] stood at 8%. For the same compound, the Papp at 12.5 µM in [2] worked out at 32 ×10⁻⁶ cm/s. The inhibition in data set [3] was 17%.

Take `O=c1[nH][nH]c2nc(-c3ccco3)c(-c3ccncn3)cc12`: the results for the pKi on Adenosine receptor A2a, on Adenosine receptor A1 and on Adenosine receptor A2b were 6.75, 7.09 and 8.52, respectively. The metabolised at 0.5 h, 5 µM in [1] stood at 7%. Further, in data set [2], the Papp at 12.5 µM came out at 3.5 ×10⁻⁶ cm/s. In [4], the Vd worked out at 0.6 L/kg. For the same compound, in data set [5], the clearance was 33.3 mL/min/kg. For the same compound, in data set [6], the half-life is 24 min. Also, the inhibition in data set [3] worked out at 2%. Also, in data set [7], the AUC(0-inf) came out at 504 ng·h/mL. This compound also displayed a Cmax in [8] of 1330 ng/mL.

`c1coc(-c2nc3[nH]ccc3cc2-c2ccncn2)c1`: the negative logarithm of the Ki (pKi) on Adenosine receptor A2a was 6.21; at Adenosine receptor A1, 6.60; at Adenosine receptor A2b, 7.89. Further, the metabolised at 0.5 h, 5 µM in [1] turned out to be 88%. Also, the Papp at 12.5 µM in data set [2] was 40 ×10⁻⁶ cm/s. The compound also came in with an inhibition in data set [3] of 7%.

Regarding `c1coc(-c2nc3[nH]cnc3cc2-c2ccncn2)c1`, the negative logarithm of the Ki (pKi) at Adenosine receptor A2a is 5.44; at Adenosine receptor A1 it was 6.14; on Adenosine receptor A2b, 7.68. Also, the metabolised at 0.5 h, 5 µM in data set [1] amounted to 10%. Also, the Papp at 12.5 µM in [2] turned out to be 23 ×10⁻⁶ cm/s. The inhibition in data set [3] is 0%.

As for `O=c1[nH]c(=O)c2cc(-c3ccncn3)c(-c3ccco3)nc2[nH]1`, the pKi at Adenosine receptor A3 is 5.20; on Adenosine receptor A2a, 6.74; on Adenosine receptor A1, 5.76; on Adenosine receptor A2b it was 9.00. Besides, the metabolised at 0.5 h, 5 µM in data set [1] came out at 0%. Further, in [2], the Papp at 12.5 µM amounted to 20 ×10⁻⁶ cm/s. This compound had a thermodynamic solubility in data set [9] of 61 µg/mL (≈ 199 µM). Also, in data set [4], the Vd was 0.75 L/kg. Moreover, the clearance in data set [5] was 20 mL/min/kg. This compound also gave a half-life in data set [6] of 24 min. The AUC(0-inf) in data set [7] was 880 ng·h/mL. Besides, the Cmax in data set [8] came out at 1680 ng/mL.

Regarding `O=C(Nc1ccc(-c2ccncn2)c(-c2ccco2)n1)C1CC1`, in data set [2], the Papp at 12.5 µM came to 45 ×10⁻⁶ cm/s.

Regarding `Nc1n[nH]c2nc(-c3ccco3)c(-c3ccncn3)cc12`, the negative logarithm of the Ki (pKi) at Adenosine receptor A2a was 6.07; at Adenosine receptor A1, 6.45; at Adenosine receptor A2b, 8.10. In addition, the metabolised at 0.5 h, 5 µM in [1] was determined as 6%. Moreover, the Papp at 12.5 µM in data set [2] is 24 ×10⁻⁶ cm/s. In addition, the thermodynamic solubility in data set [9] stood at 204 µg/mL (≈ 733 µM). Moreover, the Vd in data set [4] was 3.7 L/kg. This compound also had a clearance in data set [5] of 102 mL/min/kg. The same compound showed a half-life in [6] of 24 min. The inhibition in [3] came out at 15%. This compound also returned a total exposure AUC(0-inf) in [7] of 164 ng·h/mL. The compound further displayed a maximum concentration (Cmax) in data set [8] of 397 ng/mL.

Take `O=c1[nH]c2cc(-c3ccncn3)c(-c3ccco3)nc2[nH]1`: the results for the pKi on Adenosine receptor A2a, on Adenosine receptor A1 and at Adenosine receptor A2b were 6.11, 6.50 and 8.22, respectively. Further, the metabolised at 0.5 h, 5 µM in data set [1] is 15%. In data set [2], the Papp at 12.5 µM was found to be 40 ×10⁻⁶ cm/s. Further, the bioavailability in data set [10] was 20%. In data set [9], this compound registered a thermodynamic solubility of 48 µg/mL (≈ 172 µM). Besides, in [4], the Vd was 1 L/kg. In addition, the clearance in data set [5] is 50 mL/min/kg. Moreover, the half-life in [6] was 60 min. In addition, the inhibition in data set [3] was 18%. In data set [7], this compound yielded an AUC(0-inf) of 350 ng·h/mL. In data set [8], this compound had a Cmax of 762 ng/mL.

Consider `c1coc(-c2nc3[nH]ncc3cc2-c2ccncn2)c1`, for which the negative-log Ki (pKi) on Adenosine receptor A2a is 5.78; at Adenosine receptor A1, 6.32; on Adenosine receptor A2b, 7.64. For the same compound, in [1], the metabolised at 0.5 h, 5 µM was found to be 17%. The Papp at 12.5 µM in data set [2] was found to be 39 ×10⁻⁶ cm/s. For the same compound, the solubility (thermodynamic) in data set [9] was 296 µg/mL (≈ 1120 µM). Further, the Vd in [4] was 0.8 L/kg. This compound also had a clearance in data set [5] of 23.3 mL/min/kg. Moreover, in data set [6], the half-life is 36 min. In data set [3], the inhibition turned out to be 2%. Further, the AUC(0-inf) in data set [7] was determined as 736 ng·h/mL. This compound returned a Cmax in data set [8] of 1050 ng/mL.
